Experimental data published in patent publication US20240140975A1, “ANTIVIRAL APPLICATION OF NUCLEOSIDE ANALOG OR COMBINATION FORMULATION CONTAINING NUCLEOSIDE ANALOG” (priority 2020, published 2024).
Like-named read-outs stand apart in the source and are kept apart here.

Key:
[1] = test system: 2019 novel coronavirus (SARS-CoV-2); experiment: microbe, parasite or virus in culture; assay type: cell-based; details: for inhibition at 5 µM: read-out: Inhibition Rate (5 μM); for inhibition at 10 µM: read-out: Inhibition Rate (10 μM)
[2] = test system: porcine epidemic diarrhea virus (PEDV); experiment: Anti-porcine epidemic diarrhea virus (PEDV) activity test in Vero cells, fluorescence quantitative PCR; assay type: cell-based; details: 36 h
[3] = test system: dengue fever virus (DENV); experiment: Dengue virus plaque reduction test in Vero cells; assay type: cell-based; details: for inhibition at 5 µM: Dengue virus, read-out: DENV (Vero) 5 μM (inhibition rate), 5 μM, plaque reduction
[4] = test system: respiratory syncytial virus (RSV); experiment: Cytopathic effect (CPE) assay, RSV in HEp-2; assay type: cell-based; details: human respiratory syncytial virus, HEp-2 cells
in vitro [5] = details: human
[6] = target: RNA-dependent RNA polymerase (RdRp) of 2019 novel coronavirus (SARS-CoV-2) (Severe acute respiratory syndrome coronavirus 2 (2019-nCoV) (SARS-CoV-2), UniProt P0DTD1); experiment: Inhibition of RdRp of novel coronavirus, fluorescence method; assay type: biochemical; details: for inhibition of the activity of RdRp (in words): RdRp of novel coronavirus
Method: According to the method reported in the literature (Virus Genes, 2015, 50:498-504), the inhibitory activity of the compound of the invention on RNA-dependent RNA polymerase (RdRp) of 2019 novel coronavirus (SARS-CoV-2) was determined using the fluorescence method: after the solution of the novel coronavirus RdRp, substrate, compound solution, buffer solution, etc were co-incubated for 1 hour, fluorescent DNA binding dye was added. 10 minutes later, data collection was carried out and the inhibitory activities of the compounds on RdRp were determined.

in vitro [7] = details: human; remark: listed apart in the source
[8] = test system: human coronavirus OC43 (HCoV OC43); experiment: Cytopathic effect (CPE) assay, HCoV OC43 in Huh7; assay type: cell-based; details: Betacoronavirus 1, OC43, Huh-7, Huh7 cells
Method: The inhibitory effects of compounds on the replication of respiratory syncytial virus (RSV), human coronavirus OC43, influenza A virus, Zika virus (Zika) were tested using cytopathic effect (CPE) assay.
Experimental cells were inoculated in 96-well cell culture plate at a certain cell density, and cultured in an incubator (5% CO2, 37° C.) overnight. Compounds and viruses were added on the second day. […] Then cell viability of each well was detected using Cell Titer-Glo or CCK-8. […] The cytotoxicity test method was the same as the corresponding antiviral test method without virus infection.
The antiviral activity and cytotoxicity of the compounds are respectively indicated by the inhibition rate (%) of compounds on virus-induced cellular viral effects and cell viability (%). Calculating formulas are as follows:
Inhibition rate (%)=(reading value of test well—average value of virus control)/(average value of cell control—average value of virus control)×100;
EC50 and CC50 value are calculated by Prism software, and the inhibition curve fitting method is “log (inhibitor) vs. response—Variable slope”.

[9] = Severe acute respiratory syndrome coronavirus 2, Vero C1008, 24 h, 5 μM, Vero E6 cells, 24 h p.i.
[10] = Severe acute respiratory syndrome coronavirus 2, Vero C1008, 24 h, 10 μM, Vero E6 cells, 24 h p.i.
[11] = Porcine epidemic diarrhea virus, Vero
[12] = Severe acute respiratory syndrome coronavirus 2, Vero C1008, 24 h
[13] = Severe acute respiratory syndrome coronavirus 2, Vero C1008, Vero E6 cells, 24 h p.i., read-out: EC50

N#C[C@@]1(c2cc(F)c3c(N)ncnn23)O[C@H](CO)[C@@H](O)[C@H]1O [Compound A1]
inhibition at 5 µM [1, 9]: 80% | inhibition at 10 µM [1, 10]: 97%

N#C[C@@]1(c2cc(Cl)c3c(N)ncnn23)O[C@H](CO)[C@@H](O)[C@H]1O [Compound A2]
inhibition at 10 µM [1, 10]: < 50%

N#C[C@@]1(c2cc(I)c3c(N)ncnn23)O[C@H](CO)[C@@H](O)[C@H]1O [Compound A3]
inhibition at 10 µM [1, 10]: < 50%

N#C[C@@]1(c2ccc3c(=O)[nH]cnn23)O[C@H](CO)[C@@H](O)[C@H]1O [Compound A4]
inhibition at 10 µM [1, 10]: < 50%

[2H]C([2H])(O)[C@H]1O[C@@](C#N)(c2cc(F)c3c(N)ncnn23)[C@H](O)[C@@H]1O [Compound A12]
inhibition at 5 µM [1, 9]: > 98%

Nc1ncnn2c([C@]3(C4CC4)O[C@H](CO)[C@@H](O)[C@H]3O)ccc12 [Compound A28]
EC50 [2, 11]: 1100 nM | inhibition at 5 µM [3]: 6%

CC(C)C(=O)OC[C@H]1O[C@@](C#N)(c2ccc3c(N)ncnn23)[C@H](O)[C@@H]1O [Compound A50]
EC50 [2]: 2 nM | Inhibition Rate (5 μM) ([1]; 5 μM, Vero E6 cells, 24 h p.i.): 99% | Inhibition Rate (10 μM) ([1]; 10 μM, Vero E6 cells, 24 h p.i.): 99% | EC50 ([1]; Vero E6 cells, 24 h p.i., read-out: EC50): 230 nM

CC(C)[C@H](N)C(=O)OC[C@H]1O[C@@](C#N)(c2ccc3c(N)ncnn23)[C@H](O)[C@@H]1O [Compound A52]
inhibition at 5 µM [1, 9]: > 98%

[2H]c1cc([C@]2(C#N)O[C@H](COC(=O)[C@@H](N)C(C)C)[C@@H](O)[C@H]2O)n2ncnc(N)c12 [Compound A72]
EC50 [4]: 770 nM | inhibition at 5 µM [1, 9]: 99% | CC50 (in vitro [5]): > 10000 nM

[2H]C([2H])(OC(=O)C(C)C)[C@H]1O[C@@](C#N)(c2ccc3c(N)ncnn23)[C@H](O)[C@@H]1O [Compound A75]
EC50 [4]: 490 nM | inhibition at 5 µM [1, 9]: 99% | CC50 (in vitro [5]): > 10000 nM

[2H]C([2H])(OC(=O)[C@@H](N)C(C)C)[C@H]1O[C@@](C#N)(c2ccc3c(N)ncnn23)[C@H](O)[C@@H]1O [Compound A77]
inhibition at 5 µM [1, 9]: > 98%

CCC(CC)COC(=O)[C@H](C)N[P@](=O)(OC[C@H]1O[C@@](C#N)(c2cc(F)c3c(N)ncnn23)[C@H](O)[C@@H]1O)Oc1ccccc1 [Compound A84]
inhibition at 10 µM [1, 12]: 82%

N#C[C@@]1(c2cc(F)c3c(N)ncnn23)O[C@H](COP(=O)(O)OP(=O)(O)OP(=O)(O)O)[C@@H](O)[C@H]1O [Compound A102]
IC50 ([6]; RdRp of 2019 novel coronavirus): 1000 to 10000 nM | inhibition of the activity of RdRp (in words) [6]: significantly inhibit the activity of RdRp

[2H]c1cc([C@]2(C#N)O[C@H](COP(=O)(O)OP(=O)(O)OP(=O)(O)O)[C@@H](O)[C@H]2O)n2ncnc(N)c12 [Compound A106]
inhibition of the activity of RdRp (in words) [6]: significantly inhibit the activity of RdRp

[2H]C([2H])(OP(=O)(O)OP(=O)(O)OP(=O)(O)O)[C@H]1O[C@@](C#N)(c2ccc3c(N)ncnn23)[C@H](O)[C@@H]1O [Compound A107]
inhibition of the activity of RdRp (in words) [6]: significantly inhibit the activity of RdRp

N#C[C@@]1(c2ccc3c(N)ncnn23)O[C@H](COP(=O)(O)OP(=O)(O)OP(=O)(O)O)[C@@H](O)[C@H]1O [Compound A109]
EC50 [1, 12]: 580 nM | inhibition at 5 µM [1, 12]: 99% | inhibition at 10 µM [1, 12]: 99%

NC(=O)[C@@]1(c2ccc3c(N)ncnn23)O[C@H](CO)[C@@H](O)[C@H]1O [Compound A112]
inhibition at 10 µM [1, 10]: < 50%

CC(C)C(=O)OC[C@H]1O[C@@](C#N)(c2ccc3c(N)ncnn23)[C@H](OC(=O)C(C)C)[C@@H]1OC(=O)C(C)C [Compound A131]
EC50 [2, 11]: < 100 nM | inhibition at 5 µM [1, 9]: > 98%

[2H]c1cc([C@]2(C#N)O[C@H](CO)[C@@H](OC(=O)C(C)C)[C@H]2O)n2ncnc(N)c12 [Compound A144]
EC50 [4]: 470 nM | CC50 (in vitro [7]): > 10000 nM | EC50 [8]: 1880 nM | EC50 [2, 11]: < 100 nM | inhibition at 5 µM [1, 9]: 99% | EC50 [1, 13]: 240 nM | CC50 (in vitro [5]): > 10000 nM

[2H]C([2H])(O)[C@H]1O[C@@](C#N)(c2ccc3c(N)ncnn23)[C@H](O)[C@@H]1OC(=O)C(C)C [Compound A164]
inhibition at 5 µM [1, 9]: 99% | EC50 [1, 13]: 270 nM

[2H]C([2H])(OC(=O)C(C)C)[C@H]1O[C@@](C#N)(c2ccc3c(N)ncnn23)[C@H](OC(=O)C(C)C)[C@@H]1OC(=O)C(C)C [Compound A171]
inhibition at 5 µM [1, 9]: > 98%

[2H]c1cc([C@]2(C#N)O[C@H](C([2H])([2H])O)[C@@H](OC(=O)C(C)C)[C@H]2O)n2ncnc(N)c12 [Compound A173]
EC50 [4]: 460 nM | CC50 (in vitro [5]): > 10000 nM

[2H]c1cc([C@]2(C#N)O[C@H](C([2H])([2H])OC(=O)C(C)C)[C@@H](O)[C@H]2O)n2ncnc(N)c12 [Compound A180]
inhibition at 5 µM [1, 9]: > 98%

[2H]c1cc([C@]2(C#N)O[C@H](C([2H])([2H])OC(=O)[C@@H](N)C(C)C)[C@@H](O)[C@H]2O)n2ncnc(N)c12 [Compound A181]
inhibition at 5 µM [1, 9]: > 98%

[2H]c1cc([C@]2(C#N)O[C@H](C([2H])([2H])O)[C@@H](OC(=O)C(C)C)[C@H]2O)n2ncnc(N)c12 [Compound A188]
inhibition at 5 µM [1, 9]: > 98%

[2H]c1cc([C@]2(C#N)O[C@H](C([2H])([2H])OC(=O)C(C)C)[C@@H](OC(=O)C(C)C)[C@H]2OC(=O)C(C)C)n2ncnc(N)c12 [Compound A196]
inhibition at 5 µM [1, 9]: > 98%

CC(C)[C@H](N)C(=O)O[C@H]1[C@@H](O)[C@](C#N)(c2ccc3c(N)ncnn23)O[C@@H]1CO [Compound A212]
inhibition at 5 µM [1, 9]: 99% | inhibition at 10 µM [1, 10]: 99% | EC50 [1, 13]: 110 nM

[2H]c1cc([C@]2(C#N)O[C@H](CO)[C@@H](OC(=O)[C@@H](N)C(C)C)[C@H]2O)n2ncnc(N)c12 [Compound A213]
EC50 [4]: 760 nM | CC50 (in vitro [7]): > 10000 nM | EC50 [8]: 1970 nM | inhibition at 5 µM [1, 9]: 99% | EC50 [1, 13]: 100 nM | CC50 (in vitro [5]): > 10000 nM

[2H]C([2H])(O)[C@H]1O[C@@](C#N)(c2ccc3c(N)ncnn23)[C@H](O)[C@@H]1OC(=O)[C@@H](N)C(C)C [Compound A214]
inhibition at 5 µM [1, 9]: 99% | EC50 [1, 13]: 110 nM

[2H]c1cc([C@]2(C#N)O[C@H](C([2H])([2H])O)[C@@H](OC(=O)[C@@H](N)C(C)C)[C@H]2O)n2ncnc(N)c12 [Compound A215]
inhibition at 5 µM [1, 9]: > 98%

N#C[C@@]1(c2ccc3c(N)ncnn23)O[C@H](CO)[C@@H](O)[C@H]1O [Compound A216]
EC50 [2]: 1920 nM | inhibition at 5 µM [3]: 24%

CO[C@@H]1[C@H](O)[C@@H](CO)O[C@@]1(C#N)c1ccc2c(N)ncnn12 [Compound A221]
EC50 [2, 11]: 1350 nM | inhibition at 5 µM [3]: 51%

NC(=O)c1nc(F)cnc1O [Favipiravir, reference compound]
inhibition at 5 µM [1, 9]: 0% | inhibition at 10 µM [1, 10]: < 20%

CCC(CC)COC(=O)[C@H](C)N[P@](=O)(OC[C@H]1O[C@@](C#N)(c2ccc3c(N)ncnn23)[C@H](O)[C@@H]1O)Oc1ccccc1 [Remdesivir, reference compound]
CC50 (in vitro [7]): 25700 nM | EC50 [8]: 21 nM | inhibition at 5 µM [1, 9]: 65% | inhibition at 10 µM [1, 10]: 99% | EC50 [1, 13]: 2000 nM | inhibition at 5 µM [3]: 100%

NC(=O)c1ncn([C@@H]2O[C@H](CO)[C@@H](O)[C@H]2O)n1 [Ribavirin, reference compound]
DENV (Vero) value printed without unit ([3]; column head 5 μM, no % printed): 17.4
